Measurements taken from patent US6352982B1, “4,1-benzoxazepines, their analogues, and their use as somatostatin agonists” (Takeda Chemical Industries, Ltd., priority 1997, dated 2002).
Counter-ions that a name gives are not always drawn.

How the values were obtained:
SD rats = assay: Insulin secretion inhibition study using SD rats; type: in vivo, rat
Method: In order to study the inhibitory effect of the compound of Example 5 on the insulin secretion after the stimulation by glucose, blood was withdrawn at various time intervals after the simultaneous intravenous administration of the compound of Example 5 and glucose. Serum insulin concentrations were determined by RIA.
Male rats of SD strain (8 weeks of age, n=3) were weighed and anesthetized by the intraperitoneal administration of 50 mg/kg of pentobarbital. As blood clotting inhibitor 30 mg of EDTA was dissolved in 300 μl of 50,000 units/ml Trasylol (Bayer) solution, and the solution was placed into Eppendorf blood collecting tubes each in quantity of […]. After fixing the rat on the rat fixing apparatus, the unilateral jugular vein was exposed and 100 μl of the blood was withdrawn from the vein by using a 25G injection needle. The test solution for the control group [without glucose] was saline containing 5% propylene glycol and 30% hydroxypropyl-β-cyclodextrin. The test solution for the control group [with glucose] was saline containing 5% propylene glycol, 30% hydroxypropyl-β-cyclodextrin, and 300 mg/kg/ml of glucose. […]
Plasma insulin concentrations were determined by RIA using the rat insulin [125I] assay system (Amersham). […] The radioactivity of the sediment was measured by gamma counter. […]

Sprague-Dawley (SD) rats = assay: Inhibition of GH secretion using Sprague-Dawley rats; type: in vivo, rat; conditions: male SD rats, 3 mg/kg intraperitoneally
Method: Male rats of SD strain were divided into the compound treatment group (n=5) and the control group (n=4). The rats in the compound treatment group were administered intraperitoneally with 0.5% methylcellulose saline solution containing the compound of Example 5 in the concentration of 3 mg/kg/5 ml, and the animals of the control group were administered intraperitoneally with 5 ml/kg of 0.5% methylcellulose saline solution. Four hours after administration, the rats were decapitated without anesthesia and whole blood was collected. The aliquots of 1 ml each of the plasma were obtained from the blood by centrifugation at 2,500 rpm at 4° C. for 30 minutes and stored at −20° C. Plasma GH concentrations were determined by RIA using the rat GH [ I] assay system (Amersham).

SMILES: NCc1cccc(C2OC(CC(=O)NCc3ccccc3F)C(=O)N(Cc3ccc(-c4ccccc4)cc3)c3ccc(Cl)cc32)c1 (stereo not drawn) [Example 5, 3,5-Trans-N-(2-fluorobenzyl)-5-(3-aminomethylphenyl)-1-(4-biphenylmethyl)-7-chloro-2-oxo-1,2,3,5-tetrahydro-4,1-benzoxazepine-3-acetamide•monohydrochloride]
- Elevation of the plasma insulin concentration after glucose (SD rats; intravenous 0.003, 0.03, 0.3 or 3 mg/kg with glucose, male SD rats): dose-dependently inhibited
- Dosage which inhibited the elevation of insulin concentration by 50% (SD rats; simultaneous intravenous administration with glucose, anesthetized male SD rats): about 0.03 mg/kg
- Plasma GH concentrations mean ± SD (Sprague-Dawley (SD) rats; four hours after administration, n = 5): 11.2 ± 6.5 ng/mL
- Plasma GH concentration versus control (Sprague-Dawley (SD) rats; p<0.05): declined significantly
